{"source": "patent US20140363406A1", "about": "“ESTROGEN METABOLITE LEVELS AND CYP1B1 POLYMORPHISMS IN LUNG CANCER DIAGNOSIS, PROGNOSIS, AND RISK ASSESSMENT” (Institute for Cancer Research d/b/a The Research Institute …, priority 2012, published 2014)", "target": "T1, CYP1B1 (Mus musculus, UniProt Q64429)", "T1 sequence (Q64429 1-543)": "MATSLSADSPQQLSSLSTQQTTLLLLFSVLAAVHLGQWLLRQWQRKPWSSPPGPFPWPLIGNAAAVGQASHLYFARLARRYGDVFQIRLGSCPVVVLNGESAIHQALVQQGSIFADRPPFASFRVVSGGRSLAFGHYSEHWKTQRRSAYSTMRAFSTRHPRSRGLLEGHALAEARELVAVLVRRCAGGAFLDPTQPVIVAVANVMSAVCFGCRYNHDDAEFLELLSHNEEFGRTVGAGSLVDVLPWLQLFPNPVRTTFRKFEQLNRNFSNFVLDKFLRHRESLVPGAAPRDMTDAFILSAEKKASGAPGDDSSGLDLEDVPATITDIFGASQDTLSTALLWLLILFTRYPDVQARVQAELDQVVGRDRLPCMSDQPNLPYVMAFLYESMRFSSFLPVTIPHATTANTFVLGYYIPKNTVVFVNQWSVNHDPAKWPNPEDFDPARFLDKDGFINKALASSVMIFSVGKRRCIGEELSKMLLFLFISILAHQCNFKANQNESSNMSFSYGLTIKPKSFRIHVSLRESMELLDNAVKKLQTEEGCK", "assay": "Impact of Cyp1b1 deletion on lung estrogen/EM levels (Cyp1b1-KO vs Cyp1b1-WT 129SvJ mice), LC-MS2", "description": "Animals. […] Smoke exposures were performed on female C57/B6 mice (1.5-2 years old) carrying a human APOE*4 transgene that were part of an atherosclerosis study at Duke University and fed a high-fat diet TD.88051. Animals had free access to food and water. All animal experimentation was approved by the Institutional Animal Care and Use Committees at Fox Chase Cancer Center and Duke University.\nGenotyping. PCR-based genotyping of Cyp1b1 wild-type (Cyp1b1-WT) and knockout (Cyp1b1-K0) mice was performed using Choice Taq Blue DNA Polymerase Master mix (Denville Scientific, South Plainfield, N.J.) according to the following protocol: Wild-type primers—[…]\nLung tissue collection. Following euthanasia, the lungs were perfused by intracardiac injection with 30 ml phosphate buffered saline to flush out the blood. Perfused tissues were snap-frozen in liquid nitrogen and stored at −80° C. The accessory lobe of the lung was reserved for RNA extraction, whereas the remaining lobes were processed for estrogen metabolite analyses.\nSample preparation. Lung tissue samples (0.1-0.2 g per sample) from Cyp1b1-WT or Cyp1b1-KO mice (female and male, 12-14 weeks of age, n=4-5 per group) were thawed at room temperature, minced with scissors and transferred into 1.5 ml Eppendorf tubes. […] The tissue was homogenized on ice using a Tissue Tearor™ (Cole-Parmer, Vernon Hills, Ill.) at low and high speeds in two consecutive 15 s increments for a total of 30 s, and further sonicated on ice (five cycles of 10 s pulses with 10 s breaks between pulses). Eight milliliters of ethanol:acetone and […] each of stable isotope-labeled estrogen internal standards (0.32 ng/ml working standard solutions) were added to each tissue homogenate. The mixture was incubated on a rotator at room temperature for 1 h and centrifuged at 3000 ×g for 30 min. The ethanol:acetone tissue extract was transferred to a clean glass tube and dried under nitrogen gas at 60° C. for 60 min (Reacti-Vap III™, Pierce, Rockford, Ill.). The residue was redissolved in 4 ml of methanol, vortexed for 1 min, chilled at -80° C. for 1 h, returned to room temperature and centrifuged at 3000 × g for 20 min. The methanolic phase was transferred to a clean glass tube and dried under nitrogen gas. The residue was redissolved in 100 μl of ethanol and vortexed briefly. This step was followed by the addition of 1.5 ml of 100 mM sodium acetate buffer, pH 4.6, and 5 ml of dichloromethane to the residue and incubation at room temperature on a rotator for 30 min.\nThe extract was chilled at −80° C. for 10 min, returned to room temperature and centrifuged at 3000 × g for 20 min. The dichloromethane phase was transferred to a clean tube and dried. To each dried sample, 40 μl of 0.1 M sodium bicarbonate buffer, pH 9.0, and 40 μl of dansyl chloride solution (1 mg/ml in acetone) were added. After vortexing for 10 s, samples were heated at 70° C. (Reacti-Therm III™ Heating Module, Pierce, Rockford, Ill.) for 10 min to form the EM and SI-EM dansyl derivatives. All samples were centrifuged at 3000 ×g for 20 min and analyzed using LC-M5^2. The efficiency of extracting estrogen and its metabolites from the tissue cannot be measured accurately because a known amount of each metabolite cannot be placed in the tissue prior to extraction. Furthermore, the amount of estrogens/EM present at baseline is unknown.\nLC-MS^2 analysis was performed using a Shimadzu Prominence UFLC system (Shimadzu Scientific Instruments, Columbia, Md.) coupled with a TSQ™ Quantum Ultra triple quadrupole mass spectrometer (Thermo Electron, San Jose, Calif.). The LC separation was carried out on a 50 mm long×2 mm […] column packed with 2.5 μm Synergi Hydro-RP particles (Phenomenex, Torrance, Calif.) maintained at 40° C. A 20 μl aliquot of each sample was injected onto the column.", "data": [{"smiles": "C[C@]12CC[C@@H]3c4cc(O)c(O)cc4CC[C@H]3[C@@H]1CCC2=O", "note": "[2-OHE1, 2-hydroxyestrone]", "values": [{"measurement": "percentage of total estrogen, male versus female (in words)", "setting": "Cyp1b1-KO mice", "value": "no significant difference"}, {"measurement": "increase in lung level in Cyp1b1-KO compared with WT controls", "setting": "females", "value": 3, "unit": "fold"}, {"measurement": "increase in lung level in Cyp1b1-KO compared with WT controls", "setting": "males", "value": 1.7, "unit": "fold"}]}, {"smiles": "C[C@]12CC[C@@H]3c4ccc(O)c(O)c4CC[C@H]3[C@@H]1CCC2=O", "note": "[4-OHE1, 4-hydroxyestrone]", "values": [{"measurement": "decrease in lung level by deletion of Cyp1b1", "setting": "female Cyp1b1-KO vs WT", "value": 21, "unit": "fold"}, {"measurement": "lung level in Cyp1b1-KO as % of WT controls", "setting": "females", "value": 4.7, "unit": "%"}, {"measurement": "decrease in lung level by deletion of Cyp1b1", "setting": "male Cyp1b1-KO vs WT", "value": 14, "unit": "fold"}, {"measurement": "lung level in Cyp1b1-KO as % of WT controls", "setting": "males", "value": 7.4, "unit": "%"}]}, {"smiles": "C[C@]12CC[C@@H]3c4ccc(O)c(O)c4CC[C@H]3[C@@H]1CC[C@@H]2O", "note": "[4-OHE2, 4-hydroxyestradiol]", "values": [{"measurement": "lung level reduced in Cyp1b1-KO compared with Cyp1b1-WT controls", "setting": "both sexes", "value": "~50", "unit": "%"}, {"measurement": "lung level reduced in Cyp1b1-KO compared with Cyp1b1-WT controls", "setting": "females", "value": 60, "unit": "%"}, {"measurement": "lung level reduced in Cyp1b1-KO compared with Cyp1b1-WT controls", "setting": "males", "value": 56, "unit": "%"}]}]}
